biological target: T1, p56lck GST-SH2 (lck SH2 domain) (Homo sapiens, UniProt P06239); assay: Receptor-ligand equilibrium binding constants by surface plasmon resonance (biosensor), lck SH2 domain; details: Table 1, compounds of formula (II)
T1 construct: GST (N)
Method: The general methods for the determination of Receptor-Ligand Kinetic and Equilibrium Binding Constants using Surface Plasmon Resonance as applied to the lck SH2 Domain have been described in: M. M. Morelock, R. H. Ingraham, R. Betageri.
General Biosensor Methods.
The mobile phase buffer, 10 mM HEPES, pH 7.4, 150 mM NaCl, and 0.05% P-20, was maintained at a flow rate of 5 μL/min in all experiments. All buffers and protein solutions were filtered through a 0.2 um filter and degassed immediately before use.
Strepavidin was diluted to 0.25 mg/ml in 20 mM NaOAc buffer, pH 4.5 and immobilized by free amine coupling to approximately 3000 RU for all 4 flow cells from a single sensor chip .
Surface Kd Determinations.
The surface was regenerated by 4μL of 20 mM HCl followed by 4 μL of 150 mM Tris base. The values used in the analysis were the equilibrium plateau values from which the sample refractive index has been subtracted. For the data analyzed for linear function the equilibrium plateau values without the sample refractive index subtracted were used. Free solution Kd determinations. In a 96 well microtiter plate 20 nM SH2 domain suspended in running buffer containing 0.2 mg/ml BSA and 1 mM DT'T was distributed in 100 μL per well. The highest concentration of compound tested was added to the last well and titrated with 2 fold dilutions for a final of 10 concentrations to be run. 25 μL of the mixture was injected over a strepavidin-biotin-ε-aminohexanoic acid-EGQpYEEIPIA surface and regenerated with 4 μL of 20 mM HCl. […], of 150 mM Tris base was injected after every 11 samples. Typically 8 assays were run in an overnight programmed run.

T1 sequence (P06239 127-224 limits assumed): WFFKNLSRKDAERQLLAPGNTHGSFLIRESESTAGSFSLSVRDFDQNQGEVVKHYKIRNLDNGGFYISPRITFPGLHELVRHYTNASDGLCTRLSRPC

Going from `COc1ccc(Cn2cc(Br)c(C)c(NC(=O)[C@H](Cc3ccc(-n4nnc(C(=O)O)c4C(=O)O)cc3)NC(=O)Cc3ccc4ccccc4c3)c2=O)cc1` [Compound 241, 3-[2'-(S)-(2""-Naphthylacetyl)amino-3'-[4"-(4'",5'"-dicarboxytriazolyl)]benzene]propanoylamino-1-(4-methoxybenzyl)-5-bromo-4-methyl-2-pyridone] to `COc1ccc(Cn2ccc(C)c(NC(=O)[C@H](Cc3ccc(CC(=O)O)cc3)NC(=O)Cc3ccc4ccccc4c3)c2=O)cc1` [Compound 59, 3-[2'-(S)-(2'"-Naphthylacetyl)amino-3'-(4"-carboxymethyl)benzene]propanoylamino-1-(4-methoxybenzyl)-4-methyl-2-pyridone], the Kd rises from 0.06 µM to 1.5 µM (25-fold).

`COc1ccc(Cn2ccc(C)c(NC(=O)[C@H](Cc3ccc(CC(=O)O)cc3)NC(=O)Cc3cccc4ccccc34)c2=O)cc1` [Compound 88] and `CCc1ccn(Cc2ccc(OC)cc2)c(=O)c1NC(=O)[C@H](Cc1ccc(CC(=O)O)cc1)NC(=O)Cc1cccc2ccccc12` [Compound 92, 3-[2'-(S)-(1'"-Naphthylacetyl)amino-3'-(4"-carboxymethyl)benzene]propanoylamino-1-(4-methoxy)benzyl-4-ethyl-2-pyridone] are within 1.5-fold of each other in Kd: 4.4 µM for the first, 3.8 µM for the second.

First: COc1ccc(Cn2ccc(C)c(NC(=O)[C@H](Cc3ccc(C(F)(F)P(=O)(O)O)cc3)NC(=O)Cc3cccc4ccccc34)c2=O)cc1 [Compound 66]
Second: COc1ccc(Cn2ccc(C)c(NC(=O)[C@H](Cc3ccc(CS(=O)(=O)O)cc3)NC(=O)Cc3cccc4ccccc34)c2=O)cc1 [Compound 42, 3-[2'-(S)-(1'"-Naphthylacetyl)amino-3'-(4"-sulfonylmethyl)benzene]propanoylamino-1-(4-methoxybenzyl)-4-methyl-2-pyridone]
The Kd of the first is 3.5-fold lower: 0.43 µM for the first, 1.5 µM for the second.

`COc1ccc(Cn2ccc(C)c(NC(=O)[C@H](Cc3ccc(NC(=O)C(=O)O)cc3)NC(=O)Cc3ccc(NC(C)C)cc3)c2=O)cc1` [Compound 47] and `COc1ccc(Cn2ccc(C)c(NC(=O)[C@H](Cc3ccc(NC(=O)C(=O)O)cc3)NC(=O)Cc3ccc(Br)cc3)c2=O)cc1` [Compound 36] are within 1.5-fold of each other in Kd: 2.1 µM for the first, 1.5 µM for the second.

`COc1ccc(Cn2ccc(C)c(NC(=O)[C@H](Cc3ccc(NC(=O)C(=O)O)cc3)NC(=O)Nc3nc4ccccc4s3)c2=O)cc1` [Compound 7] and `COc1ccc(Cn2ccc(C)c(NC(=O)[C@H](Cc3ccc(NC(=O)C(=O)O)cc3)NC(=O)Nc3ccc(C(C)C)cc3)c2=O)cc1` [Compound 103] cannot be ordered by Kd: over 11 µM for the first, 12 µM for the second.

First: COc1ccc(Cn2cccc(NC(=O)[C@H](Cc3ccc(CC(=O)O)cc3)NC(=O)Cc3cccc4ccccc34)c2=O)cc1 [Compound 90]
Second: Cc1ccc(Cn2ccc(C)c(NC(=O)[C@H](Cc3ccc(CC(=O)O)cc3)NC(=O)Cc3cccc4ccccc34)c2=O)cc1 [Compound 56]
The Kd of the first is higher: over 250 µM for the first, 7.1 µM for the second.

Going from `COc1ccc(Cn2ccc(C)c(NC(=O)[C@H](Cc3ccc(C(CO)C(=O)O)cc3)NC(=O)Cc3cccc4ccccc34)c2=O)cc1` (stereo partly drawn) [Compound 136, 3-[2'-(S)-(1'"-Naphthylacetyl)amino-3'-[4"-(1'"-(R,S)-carboxy-2'"-hydroxy)ethyl]benzene]propanoylamino-1-(4-methoxybenzyl)-4-methyl-2-pyridone] to `Cc1ccn(Cc2ccc(C(C)C)cc2)c(=O)c1NC(=O)[C@H](Cc1ccc(CC(=O)O)cc1)NC(=O)Cc1cccc2ccccc12` [Compound 54], the Kd rises from 5.6 µM to over 500 µM. The first binds more tightly here.

First: Cc1ccn(CC=CCC2CCCCC2)c(=O)c1NC(=O)[C@H](Cc1ccc(CC(=O)O)cc1)NC(=O)Cc1cccc2ccccc12 [Compound 12]
Second: CCCCCn1ccc(C)c(NC(=O)[C@H](Cc2ccc(CC(=O)O)cc2)NC(=O)Cc2cccc3ccccc23)c1=O [Compound 70]
The Kd of the first is higher: over 250 µM for the first, 24 µM for the second. The second binds more tightly here.

`COc1ccc(Cn2ccc(C)c(NC(=O)[C@H](Cc3ccc(CC(=O)O)cc3)NC(=O)C(F)(F)F)c2=O)cc1` [Compound 87] and `CCC(=O)N[C@@H](Cc1ccc(CC(=O)O)cc1)C(=O)Nc1c(C)ccn(Cc2ccc(OC)cc2)c1=O` [Compound 74] are within 1.5-fold of each other in Kd: 18 µM for the first, 14 µM for the second.

First: COc1ccc(Cn2ccc(C)c(NC(=O)[C@H](Cc3ccc(NC(=O)C(=O)O)cc3)NC(C)=O)c2=O)cc1 [Compound 6]
Second: COc1ccc(Cn2ccc(C)c(NC(=O)[C@H](Cc3ccc(NC(=O)C(=O)O)cc3)NC(=O)OC(C)(C)C)c2=O)cc1 [Compound 4]
The Kd of the first is 5.1-fold lower: 8.3 µM for the first, 42.5 µM for the second. The first binds more tightly here.

`Cc1ccn(Cc2ccc(C(=O)C(F)(F)F)cc2)c(=O)c1NC(=O)C(Cc1ccc(C(C)(C)C(=O)O)cc1)NC(=O)C(C)(C)c1ccc2ccccc2c1` (stereo not drawn) [Compound 225] and `Cc1ccn(Cc2ccc(C(=O)C(F)(F)F)cc2)c(=O)c1NC(=O)C(Cc1ccc(C(C)(C)C(=O)O)cc1)NC(=O)Cc1ccc2ccccc2c1` (stereo not drawn) [Compound 226] are within 1.5-fold of each other in Kd: 41 µM for the first, 33 µM for the second.

Compared with `COc1ccc(Cn2ccc(C)c(NC(=O)[C@H](Cc3ccc(CC(=O)O)cc3)NC(=O)C3(c4ccccc4)CCOCC3)c2=O)cc1` [Compound 80], `COc1ccc(Cn2ccc(C)c(NC(=O)[C@H](Cc3ccc(CC(=O)O)cc3)NC(=O)Cc3ccccc3)c2=O)cc1` [Compound 58] is 3.6-fold lower in Kd: 20 µM for the first, 5.6 µM for the second.

`COc1ccc(Cn2ccc(C)c(NC(=O)[C@H](Cc3ccc(CC(=O)O)cc3)NC(=O)COc3cccc4ccccc34)c2=O)cc1` [Compound 72] and `COc1ccc(Cn2ccc(C)c(NC(=O)[C@H](Cc3ccc(CC(=O)O)cc3)NC(=O)COc3ccc4ccccc4c3)c2=O)cc1` [Compound 166] are within 1.5-fold of each other in Kd: 2.5 µM for the first, 1.7 µM for the second.

Compared with `Cc1ccn(Cc2ccoc2)c(=O)c1NC(=O)C(Cc1ccc(C(C)(C)C(=O)O)cc1)NC(=O)Cc1cccc2ccccc12` (stereo not drawn) [Compound 201], `Cc1ccn(Cc2ccc(C(C)C)cc2)c(=O)c1NC(=O)[C@H](Cc1ccc(C(C)(C)C(=O)O)cc1)NC(=O)Cc1cccc2ccccc12` [Compound 101] is 1.6-fold lower in Kd: 6.7 µM for the first, 4.3 µM for the second. The second binds more tightly here.

Going from `COc1ccccc1Cn1ccc(C)c(NC(=O)[C@H](Cc2ccc(CC(=O)O)cc2)NC(=O)Cc2cccc3ccccc23)c1=O` [Compound 19] to `Cc1ccn(Cc2ccccc2)c(=O)c1NC(=O)[C@H](Cc1ccc(CC(=O)O)cc1)NC(=O)Cc1cccc2ccccc12` [Compound 18], the Kd falls from 37.2 µM to 17.7 µM (2.1-fold).

Compared with `Cc1ccn(CCc2ccccc2)c(=O)c1NC(=O)[C@H](Cc1ccc(CC(=O)O)cc1)NC(=O)Cc1cccc2ccccc12` [Compound 21], `Cc1ccn(CCc2ccccc2)c(=O)c1NC(=O)C(Cc1ccc(C(C)(C)C(=O)O)cc1)NC(=O)Cc1cccc2ccccc12` (stereo not drawn) [Compound 199] is 3.4-fold lower in Kd: 30.5 µM for the first, 9.1 µM for the second.

Compared with `COc1ccc(Cn2ccc(C)c(NC(=O)[C@H](Cc3ccc(C(C)(C)C(=O)O)cc3)NC(=O)Cc3ccc(Br)cc3)c2=O)cc1` [Compound 110], `COc1ccc(Cn2ccc(C)c(NC(=O)[C@H](Cc3ccc(NC(=O)C(=O)O)cc3)NC(=O)Cc3cccc(Br)c3)c2=O)cc1` [Compound 37] is 3.6-fold higher in Kd: 0.18 µM for the first, 0.65 µM for the second.

First: Cc1ccn(Cc2ccoc2)c(=O)c1NC(=O)C(Cc1ccc(C(C)(C)C(=O)O)cc1)NC(=O)C(C)(C)c1ccc2ccccc2c1 (stereo not drawn) [Compound 203]
Second: COc1ccc(Cn2ccc(C)c(NC(=O)C(Cc3ccc(C(C)(C)C(=O)O)cc3)NC(=O)C(C)(C)c3ccc4ccccc4c3)c2=O)cc1O (stereo not drawn) [Compound 232]
The Kd of the first is 3-fold lower: 11 µM for the first, 33 µM for the second.

First: COc1ccc(C(C)n2ccc(C)c(NC(=O)[C@H](Cc3ccc(CC(=O)O)cc3)NC(C)=O)c2=O)cc1 (stereo partly drawn) [Compound 81]
Second: COc1ccc(Cn2ccc(C)c(NC(=O)[C@H](Cc3ccc(NC(=O)C(=O)O)cc3)NC(=O)Cc3csc(N)n3)c2=O)cc1 [Compound 10]
The Kd of the first is 3.4-fold higher: 23 µM for the first, 6.7 µM for the second.

Going from `COc1cc(Cn2ccc(C)c(NC(=O)C(Cc3ccc(C(C)(C)C(=O)O)cc3)NC(=O)Cc3ccc4ccccc4c3)c2=O)cc(OC)c1OC` (stereo not drawn) [Compound 157] to `COCCOCn1ccc(C)c(NC(=O)C(Cc2ccc(C(C)(C)C(=O)O)cc2)NC(=O)Cc2cccc3ccccc23)c1=O` (stereo not drawn) [Compound 188], the Kd rises from 21 µM to 45 µM (2.1-fold).

Compared with `COc1ccc(Cn2ccc(C)c(NC(=O)[C@H](Cc3ccc(N(O)C(=O)C(=O)O)cc3)NC(=O)Cc3c[nH]c4ccccc34)c2=O)cc1` [Compound 24], `CCN(CC)c1ccc(CC(=O)N[C@@H](Cc2ccc(NC(=O)C(=O)O)cc2)C(=O)Nc2c(C)ccn(Cc3ccc(OC)cc3)c2=O)cc1` [Compound 40] is 1.5-fold lower in Kd: 2.9 µM for the first, 1.9 µM for the second. The second binds more tightly here.

Compared with `COCCCCn1ccc(C)c(NC(=O)C(Cc2ccc(C(C)(C)C(=O)O)cc2)NC(=O)C(C)(C)c2ccc3ccccc3c2)c1=O` (stereo not drawn) [Compound 236], `COc1ccc(Cn2ccc(C)c(NC(=O)[C@H](Cc3ccc(NC(=O)C(=O)O)cc3)NC(=O)CNC(=O)c3ccccc3C(=O)O)c2=O)cc1` [Compound 31] is 2.1-fold lower in Kd: 1.4 µM for the first, 0.68 µM for the second.

In the case of `COc1ccc(Cn2ccc(C)c(NC(=O)[C@H](Cc3ccc(CC(=O)O)cc3)NC(=O)Cc3cccc(Oc4ccccc4)c3)c2=O)cc1` [Compound 61], the Kd is reported as 3.3 µM.

same assay, conditions: Table 2, compounds of formula (III)

First: COc1ccc(Cn2nc(C)c(C)c(NC(=O)[C@H](Cc3ccc(CC(=O)O)cc3)NC(=O)Cc3cccc4ccccc34)c2=O)cc1 [Compound 244]
Second: COc1ccc(Cn2ncc(C)c(NC(=O)[C@H](Cc3ccc(CC(=O)O)cc3)NC(=O)Cc3cccc4ccccc34)c2=O)cc1 [Compound 243]
The Kd of the first is 5.8-fold lower: 6 µM for the first, 35 µM for the second.

`COc1ccc(Cn2ncc(C)c(NC(=O)C(Cc3ccc(C(C)(C)C(=O)O)cc3)NC(=O)Cc3ccccc3[N+](=O)[O-])c2=O)cc1` (stereo not drawn) [Compound 247] gave a Kd of 5.2 µM.
